Where two headings read alike, the source gives them in different places.

Common to all, as to format: biochemical
Experiment [1] has as its target T1, PfcFRS (Plasmodium falciparum, UniProt Q8I246).
T1 sequence (Q8I246 1-575): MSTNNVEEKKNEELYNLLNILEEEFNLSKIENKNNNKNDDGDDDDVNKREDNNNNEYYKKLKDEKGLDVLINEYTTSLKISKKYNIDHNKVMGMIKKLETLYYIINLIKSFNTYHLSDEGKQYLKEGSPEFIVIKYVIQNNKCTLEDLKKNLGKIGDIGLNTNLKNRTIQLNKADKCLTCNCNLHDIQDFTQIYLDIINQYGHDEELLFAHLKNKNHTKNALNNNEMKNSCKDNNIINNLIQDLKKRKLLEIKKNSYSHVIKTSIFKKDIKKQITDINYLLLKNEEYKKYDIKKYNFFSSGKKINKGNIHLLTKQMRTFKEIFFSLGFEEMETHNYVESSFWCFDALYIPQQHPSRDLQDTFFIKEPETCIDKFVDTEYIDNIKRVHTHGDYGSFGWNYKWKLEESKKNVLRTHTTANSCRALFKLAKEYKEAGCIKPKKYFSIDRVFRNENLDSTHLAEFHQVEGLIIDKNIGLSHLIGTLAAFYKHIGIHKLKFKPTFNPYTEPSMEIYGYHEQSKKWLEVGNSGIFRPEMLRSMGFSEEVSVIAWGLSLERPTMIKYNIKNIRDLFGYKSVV
T1 sequence (Q8IIW2 1-623 partner): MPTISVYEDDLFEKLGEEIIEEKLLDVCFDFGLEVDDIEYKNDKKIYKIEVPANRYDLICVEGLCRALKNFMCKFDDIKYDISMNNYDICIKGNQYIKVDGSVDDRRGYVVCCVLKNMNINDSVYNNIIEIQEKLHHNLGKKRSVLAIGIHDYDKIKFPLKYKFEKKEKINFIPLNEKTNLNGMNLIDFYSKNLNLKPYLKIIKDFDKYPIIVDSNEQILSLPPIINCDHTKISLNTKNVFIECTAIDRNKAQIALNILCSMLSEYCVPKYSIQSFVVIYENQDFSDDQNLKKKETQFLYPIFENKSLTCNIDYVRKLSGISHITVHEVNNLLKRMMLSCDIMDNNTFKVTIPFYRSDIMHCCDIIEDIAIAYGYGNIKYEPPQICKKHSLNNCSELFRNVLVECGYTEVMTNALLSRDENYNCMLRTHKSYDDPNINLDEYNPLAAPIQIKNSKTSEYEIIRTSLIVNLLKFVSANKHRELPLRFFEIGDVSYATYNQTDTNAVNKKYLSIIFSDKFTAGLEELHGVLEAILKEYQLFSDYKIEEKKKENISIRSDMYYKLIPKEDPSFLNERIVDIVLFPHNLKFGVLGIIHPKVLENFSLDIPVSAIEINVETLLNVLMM
Description: malachite green-based aminoacylation assay, PfcFRS. From the text:
(§1) EC50 assays were run as described in Int'l Pub Nos. WO 2015070204, WO 2018175385, and Kato, N, et al. Nature 538 (2016): 344-349, which are hereby incorporated by reference in its entirety. The inhibition of the aminoacylation activity of Pf (Plasmodium falciparum), Pv (Plasmodium vivax), Hs (Human) and Pf-Mut (L550V) cFRS enzymes by Compound 1 are illustrated in FIG. 1.
(§2) The enzymatic activity of purified heterodimeric PfcFRS using malachite green-based aminoacylation assays with substrates L-Phe and ATP was also measured as described in Cestari, I. et al., J Biomol. Screen. 18 (2013): 490-497 and Kato, N, et al. Nature 538 (2016): 344-349, which are hereby incorporated by reference in its entirety. […] Enzymatic reactions (50 μl total volume) were performed in clear, flat-bottomed, 96-well plates (Costar 96-well standard microplates). The reaction mixture was incubated for 2 h at 37° C. The reaction was stopped by adding 12.5 μl of malachite green solution to the reaction mixture and levels of inorganic phosphate (Pi) were detected after incubation of 5 min at room temperature. Absorbance was the measured at 620 nm using a Spectramax M2 (Molecular Devices). Reactions without FRS enzyme were performed as background controls, values of which were subtracted from the reactions with enzyme. Compound 1 was added to the aminoacylation assay reaction buffer in varying concentrations ranging from 0.1 nM to 10,000 nM.
Data sets were then globally fitted to the appropriate model (with equations (1) and (2) used for competitive and mixed inhibition respectively).
where v is the reaction rate, Km is the Michaelis-Menten constant, Vmax is the maximum reaction velocity, Ki is the inhibitor constant, [I] is the concentration of inhibitor (Compound 1) and [S] is the concentration of substrate.
The data is shown for three replicates as the mean±SD in FIGS. 2A and 2B. […] Specifically, enzyme activity was evaluated at a fixed saturating concentration of one substrate (L-Phe or ATP) and varying concentrations the other at different inhibitor concentrations. The experimental data were fit to the Michaelis-Menten equation that produced Lineweaver-Burk plots as described above. […] The mode of inhibition was then analyzed using ATP as the variable-concentration substrate (FIG. 2B). The data were then fit to the modified high-substrate inhibition Michaelis-Menten equation that led to the corresponding double-reciprocal plot and its inhibition profile.

Experiment [2] addresses T2, Pv (Plasmodium vivax) cFRS (Plasmodium vivax, UniProt A5K9S0).
T2 construct: Full-length PvcFRS was also purified according to the same protocol; His6 (encoded by vector pETM11); made in house; host or cells: E. coli strain B834
Description: malachite green-based aminoacylation assay, PvcFRS. To be noted: aminoacylation activity.
Description: as §1
as §2, with “Compound 1 was added to the aminoacylation assay reaction buffer in varying concentrations ranging from 0.1 nM to 10,000 nM.” left out

The target of experiment [3] is T3, Pf-Mut (L550V) cFRS (Plasmodium falciparum, UniProt Q8I246, L550V).
T3 sequence (Q8I246 1-575 L550V): T1 sequence (Q8I246 1-575)
T3 sequence (Q8IIW2 1-623 partner): T1 sequence (Q8IIW2 1-623 partner)
Description: malachite green-based aminoacylation assay, Pf-Mut (L550V) cFRS. To be noted: aminoacylation activity; read-out: cFRS IC50, Pf mutant (L550V).
Description: as §1
as §2, with “Compound 1 was added to the aminoacylation assay reaction buffer in varying concentrations ranging from 0.1 nM to 10,000 nM.” left out

T2 sequence (A5K9S0 whole entry): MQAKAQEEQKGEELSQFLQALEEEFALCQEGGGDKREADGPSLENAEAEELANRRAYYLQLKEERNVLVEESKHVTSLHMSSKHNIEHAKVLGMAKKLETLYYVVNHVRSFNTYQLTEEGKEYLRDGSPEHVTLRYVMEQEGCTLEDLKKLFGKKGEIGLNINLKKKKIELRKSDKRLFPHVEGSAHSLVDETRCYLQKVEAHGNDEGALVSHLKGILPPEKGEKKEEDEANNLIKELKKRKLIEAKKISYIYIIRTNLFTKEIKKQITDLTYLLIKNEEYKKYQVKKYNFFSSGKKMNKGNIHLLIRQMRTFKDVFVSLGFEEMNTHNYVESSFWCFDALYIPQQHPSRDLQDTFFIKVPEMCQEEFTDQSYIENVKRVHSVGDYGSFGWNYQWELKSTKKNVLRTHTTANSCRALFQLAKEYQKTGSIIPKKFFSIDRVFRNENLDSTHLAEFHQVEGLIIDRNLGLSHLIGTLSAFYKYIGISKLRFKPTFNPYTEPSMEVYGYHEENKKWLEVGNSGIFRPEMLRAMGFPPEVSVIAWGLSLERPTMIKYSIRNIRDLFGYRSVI
T2 sequence (A5K464 whole entry, further chain): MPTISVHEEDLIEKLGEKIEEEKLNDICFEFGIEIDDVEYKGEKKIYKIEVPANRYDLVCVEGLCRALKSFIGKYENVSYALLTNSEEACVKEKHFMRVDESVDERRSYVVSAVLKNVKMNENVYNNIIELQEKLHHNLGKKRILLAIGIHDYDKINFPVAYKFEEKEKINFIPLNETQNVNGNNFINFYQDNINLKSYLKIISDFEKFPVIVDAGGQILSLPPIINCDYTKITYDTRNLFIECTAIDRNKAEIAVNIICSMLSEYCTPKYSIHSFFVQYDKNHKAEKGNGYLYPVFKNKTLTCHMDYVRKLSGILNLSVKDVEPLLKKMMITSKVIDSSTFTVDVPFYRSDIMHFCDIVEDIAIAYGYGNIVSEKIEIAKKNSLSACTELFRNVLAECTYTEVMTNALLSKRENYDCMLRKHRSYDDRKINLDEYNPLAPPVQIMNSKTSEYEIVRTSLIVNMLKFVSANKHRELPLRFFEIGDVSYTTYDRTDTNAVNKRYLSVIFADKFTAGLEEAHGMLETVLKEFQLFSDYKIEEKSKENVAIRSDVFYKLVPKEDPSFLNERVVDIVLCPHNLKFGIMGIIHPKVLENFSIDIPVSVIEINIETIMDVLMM

`COC[C@@H]1[C@H](c2ccc(C#Cc3ccccc3)cc2)[C@@H]2CN(C(=O)Nc3ccc(OC4CC4)cc3)C[C@@H](O)[C@@H](O)CN12` [Compound 1, (3S,4R,8R,9R,10S)—N-(4-cyclopropoxyphenyl)-3,4-dihydroxy-10-(methoxymethyl)-9-(4-(phenylethynyl)phenyl)-1,6-diazabicyclo[6.2.0]decane-6-carboxamide]: in experiment [1] (Lineweaver-Burk analysis), the “mode of inhibition with respect to ATP” value was “non-competitive inhibitor”. In addition, the “mode of inhibition with respect to L-Phe” value in experiment [1] (Lineweaver-Burk analysis) is given as “competitive inhibitor”. For the same molecule, the IC50 in experiment [1] (aminoacylation activity, read-out: cFRS IC50, Pf) is 12 nM; in experiment [2], 25 nM; in experiment [3], 1000 nM. Moreover, the Ki in experiment [1] (global competitive inhibition model, saturating ATP, varying L-Phe, read-out: Ki with respect to L-Phe) came to 6 ± 2 nM; in experiment [1] (non-competitive inhibition model, saturating L-Phe, varying ATP, read-out: Ki with respect to ATP), 10 ± 5 nM.

The values are drawn from US20230279018A1, “AP[…] INHIBITION” (priority 2020, published 2023).
